Test system: blood glucose level
Assay: Decrease in blood glucose level after administration of insulin suppositories to rabbits
Assay type: in vivo
Details: 0.32 u/kg intramuscularly administered
Procedure: 500 mg of the dispersion was filled into a gelatin capsule for suppositories to form a gelatin capsule suppository. One capsule contained 9.6 units of insulin. In the same manner as above, insulin suppositories were prepared using the other absorption aids shown in Table 4 instead of ascorbic acid. The content (units) of insulin and the amounts of the absorption aids and the base (fractionated coconut oil) were as shown in Table 4. […] Each time, 0.5 ml of the blood was withdrawn from the ear vein. The glucose level of the blood was measured by the glucose oxidase method. Table 4 summarizes the decrease (%) of the blood glucose level from that before the administration.

## Insulin: porcine insulin, intramuscularly administered as comparison
30 minutes
  Decrease (%) in blood glucose level from that before administration: 13.7%
1 hour
  Decrease (%) in blood glucose level from that before administration: 32.6%
2 hours
  Decrease (%) in blood glucose level from that before administration: 36.2%
3 hours
  Decrease (%) in blood glucose level from that before administration: 15.2%
